Where two headings read alike, the source gives them in different places.
What was measured:
[1] = system: invasion of colorectal cancer cells; experiment: In vivo relative invation (invasion; EV and KITENIN controls, no method described); settings: relative to EV (=1); KIT = KITENIN
KAI1 promoter = KAI1 promoter luciferase reporter assay in transfected Caco2 cells; assay type: cell-based, human; settings: for fold induction at 1 µM: Homo sapiens, Caco-2, 16 h, read-out: Relative KAI promoter activity
[2] = 1 μM compound, 16 hours, transfected Caco2 cells, luciferase activity relative to DMSO control (=1)

Row | SMILES | In vivo relative invation [1] | fold induction at 1 µM (KAI1 promoter; [2]) | fold induction at 1 µM (KAI1 promoter) | Relative KAI promoter activity (KAI1 promoter; [2])
1 | CN(C)c1ccc(C(=O)CNS(=O)(=O)c2ccc(Cl)cc2)cc1 [Example 108, 4-chloro-N-(2-(4-(dimethylamino)phenyl)-2-oxoethyl)benzenesulfonamide] | 0.989 | 1.36 |  | 
2 | O=C(CNC(=O)c1ccc(Cl)cc1)c1ccccc1 [Example 1, 4-chloro-N-(2-oxo-2-phenylethyl)benzamide] | 0.9672 |  | 1.7 | 
3 | O=C(CNC(=O)c1ccc(F)cc1)c1ccc(Cl)cc1 [Example 45, N-(2-(4-chlorophenyl)-2-oxoethyl)-4-fluorobenzamide] | 1.476 | 0.84 |  | 
4 | CCCc1ccc(NC(=O)COc2ccccc2C(=O)NCC(=O)c2ccccc2)cc1 [Example 213, 2-(2-oxo-2-((4-propylphenyl)amino)ethoxy)-N-(2-oxo-2-phenylethyl)benzamide] | 1.209 | 1.14 |  | 
5 | CN(Cc1ccccc1C(=O)NCC(=O)c1ccccc1)C1CCCCC1 [Example 298, 2-((cyclohexyl(methyl)amino)methyl)-N-(2-oxo-2-phenylethyl)benzamide] | 1.213 | 1.34 |  | 
6 | CC(C)(C)CC(=O)NCC(=O)c1ccccc1 [Example 19, 3,3-dimethyl-N-(2-oxo-2-phenylethyl) butanamide] | 1.201 | 0.98 |  | 
7 | O=C(CNC(=O)c1ccccc1F)c1ccc(Cl)cc1 [Example 44, N-(2-(4-chlorophenyl)-2-oxoethyl)-2-fluorobenzamide] | 0.9752 | 0.98 |  | 
8 | O=C(COc1ccccc1C(=O)NCC(=O)c1ccccc1)Nc1ccc2c(c1)OCCO2 [Example 218, 2-(2-((2,3-dihydrobenzo[b] [1, 4]dioxin-6-yl)amino)-2-oxoethoxy)-N-(2-oxo-2-phenylethyl)benzamide] | 1.169 | 1.33 |  | 
9 | CN1CCN(Cc2cccc(C(=O)NCC(=O)c3ccccc3)c2)CC1 [Example 253, 3-((4-methylpiperazin-1-yl)methyl)-N-(2-oxo-2-phenylethyl)benzamide] | 1.421 | 0.963 |  | 
10 | C/C=C/C(=O)NCC(=O)c1cccnc1 [Example 134, (E)-N-(2-oxo-2-(pyridin-3-yl)ethyl)but-2-enamide] | 1.297 | 1.09 |  | 
11 | O=C(CNC(=O)c1ccccc1OC1CCN(C(=O)c2ccccc2C(F)(F)F)CC1)c1ccccc1 [Example 191, N-(2-oxo-2-phenylethyl)-2-((1-(2-(trifluoromethyl)benzoyl)piperidin-4-yl)oxy)benzamide] | 1.106 | 0.84 |  | 
12 | O=C(CNC(=O)c1ccc(CN2CCC(N3CCCCC3)CC2)cc1)c1ccccc1 [Example 260, 4-([1,4′-bipiperidin]-1′-ylmethyl)-N-(2-oxo-2-phenylethyl)benzamide] | 1.092 | 1.33 |  | 
13 | CN(C)c1ccc(C(=O)CNC(=O)c2cccc(Cl)c2Cl)cc1 [Example 118, 2,3-dichloro-N-(2-(4-(dimethylamino)phenyl)-2-oxoethyl)benzamide] | 0.7681 | 1.74 |  | 
14 | COc1cccc(C(=O)CNC(=O)c2cccc(CN3CCOCC3)c2)c1 [Example 293, N-(2-(3-methoxyphenyl)-2-oxoethyl)-3-(morpholinomethyl)benzamide] | 1.174 | 1.25 |  | 
15 | O=C(CNC(=O)c1cccc(CN2CCc3ccccc3C2)c1)c1ccccc1 [Example 232, 3-((3,4-dihydroisoquinolin-2 (1H)-yl)methyl)-N-(2-oxo-2-phenylethyl)benzamide] | 1.125 | 1.23 |  | 
16 | O=C(CNC(=O)c1cccc(OC(F)(F)F)c1)c1ccc(Cl)cc1 [Example 82, N-(2-(4-chlorophenyl)-2-oxoethyl)-3-(trifluoromethoxy)benzamide] | 1.189 | 0.8 |  | 
17 | CCCc1ccccc1NC(=O)COc1ccccc1C(=O)NCC(=O)c1ccccc1 [Example 210, 2-(2-oxo-2-((2-propylphenyl)amino)ethoxy)-N-(2-oxo-2-phenylethyl)benzamide] | 0.9274 | 1.03 |  | 
18 | COc1cc(OC)cc(C(=O)NCC(=O)c2ccccc2)c1 [Example 42, 3,5-dimethoxy-N-(2-oxo-2-phenylethyl)benzamide] | 1.525 | 1.12 |  | 
19 | O=C(CNC(=O)c1ccc(-c2ccccc2)cc1)c1ccc(Cl)cc1 [Example 86, N-(2-(4-chlorophenyl)-2-oxoethyl)-[1,1′-biphenyl]-4-carboxamide] | 1.193 | 1.01 |  | 
20 | O=C(CCc1ccccc1)NCC(=O)c1ccc(Cl)cc1 [Example 49, N-(2-(4-chlorophenyl)-2-oxoethyl)-3-phenylpropanamide] | 1.197 | 0.7 |  | 

Row | SMILES | In vivo relative invation [1] | fold induction at 1 µM (KAI1 promoter; [2]) | fold induction at 1 µM (KAI1 promoter) | Relative KAI promoter activity (KAI1 promoter; [2])
21 | O=C(CNC(=O)c1ccccc1OC(F)(F)F)c1ccc(Cl)cc1 [Example 84, N-(2-(4-chlorophenyl)-2-oxoethyl)-2-(trifluoromethoxy)benzamide] | 1.181 | 0.94 |  | 
22 | O=C(CNC(=O)c1ccccc1C(F)(F)F)c1ccccc1 [Example 30, N-(2-oxo-2-phenylethyl)-2-(trifluoromethyl)benzamide] | 0.7631 | 1.41 |  | 
23 | O=C(COc1ccccc1C(=O)NCC(=O)c1ccccc1)NCc1ccccc1 [Example 204, 2-(2-(benzylamino)-2-oxoethoxy)-N-(2-oxo-2-phenylethyl)benzamide] | 1.095 | 1.3 |  | 
24 | CC1CN(Cc2ccc(C(=O)NCC(=O)c3ccccc3)cc2)CC(C)O1 (stereo not drawn) [Example 278, 4-((2,6-dimethylmorpholino)methyl)-N-(2-oxo-2-phenylethyl)benzamide] | 1.217 | 1.38 |  | 
25 | CCCCC(=O)NCC(=O)c1ccc(N(C)C)cc1 [Example 103, N-(2-(4-(dimethylamino)phenyl)-2-oxoethyl)pentanamide] | 1.172 | 1.7 |  | 
26 | CCC(=O)NCC(=O)c1ccccc1 [Example 14, N-(2-oxo-2-phenylethyl)propionamide] | 0.9106 | 1.02 |  | 
27 | CN(C)c1ccc(C(=O)CNC(=O)c2ccc(F)cc2F)cc1 [Example 105, N-(2-(4-(dimethylamino)phenyl)-2-oxoethyl)-2,4ifluorobenzamide] | 1.079 | 1.25 |  | 
28 | O=C(CNC(=O)c1ccccc1OC1CCN(S(=O)(=O)c2cccc([S](=O)=O)c2)CC1)c1ccccc1 [Example 175, 2-((1-((3-(dioxo-15-sulfanyl)phenyl)sulfonyl)piperidin-4-yl)oxy)-N-(2-oxo-2-phenylethyl)benzamide] | 1.149 |  |  | 0.97
29 | O=C(CNC(=O)c1ccc(CN2CCc3ccccc3C2)cc1)c1ccccc1 [Example 254, 4-((3,4-dihydroisoquinolin-2(1H)-yl)methyl)-N-(2-oxo-2-phenylethyl)benzamide] | 0.9143 | 2.08 |  | 
30 | O=C(CNC(=O)C1CCC1)c1ccc(N2CCOCC2)cc1 [Example 144, N-(2-(4-morpholinophenyl)-2-oxoethyl)cyclobutanecarboxamide] | 1.284 | 1.08 |  | 
31 | Cc1ccccc1C(=O)N1CCC(Oc2ccccc2C(=O)NCC(=O)c2ccccc2)CC1 [Example 161, 2-((1-(2-methylbenzoyl)piperidin-4-yl)oxy)-N-(2-oxo-2-phenylethyl)benzamide] | 1.121 | 0.95 |  | 
32 | C/C=C/C(=O)NCC(=O)c1ccc(Cl)cc1 [Example 48, (E)-N-(2-(4-chlorophenyl)-2-oxoethyl)but-2-enamide] | 1.19 | 0.85 |  | 
33 | COc1ccc(NC(=O)COc2ccccc2C(=O)NCC(=O)c2ccccc2)cc1F [Example 207, 2-(2-((3-fluoro-4-methoxyphenyl)amino)-2-oxoethoxy)-N-(2-oxo-2-phenylethyl)benzamide] | 1.036 | 1.43 |  | 
34 | CCCCN(C)Cc1cccc(C(=O)NCC(=O)c2ccccc2)c1 [Example 246, 3-((butyl (methyl)amino)methyl)-N-(2-oxo-2-phenylethyl)benzamide] | 1.148 | 1.88 |  | 
35 | C=CCN(CC=C)Cc1ccccc1C(=O)NCC(=O)c1ccccc1 [Example 303, 2-((diallylamino)methyl)-N-(2-oxo-2-phenylethyl)benzamide] | 1.138 | 1.85 |  | 
36 | CC(C)N(C)Cc1ccc(C(=O)NCC(=O)c2ccccc2)cc1 [Example 256, 4-((isopropyl(methyl)amino)methyl)-N-(2-oxo-2-phenylethyl)benzamide] | 1.267 | 2.25 |  | 
37 | COc1cccc(C(=O)CNC(=O)c2cccc(CN(C)Cc3ccccc3)c2)c1 [Example 286, 3-((benzyl (methyl)amino)methyl)-N-(2-(3-methoxyphenyl)-2-oxoethyl)benzamide] | 1.233 | 1.43 |  | 
38 | O=C(CNC(=O)c1ccccc1OC1CCN(C(=O)c2cccc(Cl)c2Cl)CC1)c1ccccc1 [Example 198, 2-((1-(2,3-dichlorobenzoyl)piperidin-4-yl)oxy)-N-(2-oxo-2-phenylethyl)benzamide] | 1.15 | 0.87 |  | 
39 | CCCCN(CC)Cc1cccc(C(=O)NCC(=O)c2cccc(OC)c2)c1 [Example 290, 3-((butyl (ethyl)amino)methyl)-N-(2-(3-methoxyphenyl)-2-oxoethyl)benzamide] | 0.9234 | 1.23 |  | 

Source: US20230150924A1, “NOVEL COMPOUND HAVING CANCER METASTASIS INHIBITORY ACTIVITY, PREPARATION METHOD THEREFOR, AND PHARMACEUTICAL COMPOSITION FOR INHIBITING CANCER METASTASIS AND INVASION OR TREATING COLORECTAL CANCER, COMPRISING COMPOUND” (CELLGENTEK CO., LTD., priority 2019, published 2023)
